Laboratory results: patent publication US20100040703A1, “USE OF NITRIC OXIDE” (priority 2008, published 2010)

System: Influenza A/Victoria/H3N2
Assay: Plaque assay on MDCK cells after exposure of virions to 160 ppm NO gas
Assay type: cell-based
Settings: for plaques (infectious virus titre): 160 ppm gNO

Substance: Nitric oxide [NO-gas]
- plaques (infectious virus titre) (exposure 0 mins): 250 ± 14 pfu/ml
- plaques (infectious virus titre) (exposure 60 mins): 50 ± 11 pfu/ml
- plaques (infectious virus titre) (exposure 120 mins): 43 ± 10 pfu/ml
- plaques (infectious virus titre) (exposure 180 mins): 29 ± 14 pfu/ml
- less transmissible into host cells than the control group (virions exposed to 160 ppm NO before incubation with host cells): at least 80%
